Source: patent publication US5216162A, “Substituted pyrrolo[3,2-c]quinolines” (American Home Products Corporation, priority 1992, dated 1993)

Tested on: IL-1-induced release of neutral protease from rabbit articular chondrocytes
Test: Inhibition of IL-1-induced release of neutral protease from rabbit articular chondrocytes (azocoll neutral protease assay)
Assay type: cell-based, rabbit (male New Zealand white)
Settings: Oryctolagus cuniculus, Chondrocyte, purified human IL-1 stimulation
Protocol: The ability of the compounds of the inventions to inhibit interleukin 1 is measured by the ability of the test compounds to inhibit the IL-1-induced release of neutral protease from rabbit articular chondrocytes.
This assay is carried out as follows:
Isolation of rabbit chondrocytes
Male New Zealand white rabbits are anesthetized with 50 mg/kg of ketamine (i.m.) and killed by an intracardiac injection of 3 mls of Nembutal. The knee joints of both legs are resected and the articular surfaces are exposed. Cartilage slices are obtained using a scalpel and are placed in a tissue culture dish (100 mm diameter) containing 10 mls of Hank's balanced salt solution (HBSS). The chondrocytes within the cartilage slices are then liberated by a series of enzyme digestions. The slices are incubated for 10 minutes at 37° C. in 0.05% hyaluronidase (Sigma H-3884), rinsed with HBSS and incubated with 0.2% trypsin (Sigma T-2395) for 10 minutes at 37° C. The slices are rinsed again and incubated for 10 minutes at 37° C. with 1.2% collagenase (Sigma C-5138). The slices are then rinsed again with HBSS and resuspended in 10 ml of Ham's F-12 medium containing 10% fetal bovine calf serum (FCS) and 0.2% collagenase and incubated overnight at 37° C. in a 5% CO2 incubator. The next day, the medium containing the digested cartilage fragments and liberated chondrocytes is transferred to a 15 ml centrifuge tube and the cells are collected by centrifugation and washed twice and resuspended in Ham's F-12 medium. The cells are then plated into 24-well tissue culture plates (2×10^ 5 cells/well) and incubated at […] until confluent (usually 4-6 days).
Stimulation of chondrocytes and drug treatment
The confluent chondrocytes are rinsed twice with serum-free Ham's F-12 medium and 1 ml is added to each well. Fifty μl of purified human IL-1 (100 Units/ml; Genzyme Corporation, Boston, MA) is then added to stimulate these cells to secrete neutral protease. To measure drug effects, the cells are treated with test compound 10 minutes prior to addition of IL-1. The standard screening dose is 10 μM. Twenty-four hours after IL-1 stimulation, supernatant fluids are collected and assayed for neutral protease activity.
The neutral protease activity of chondrocyte supernatant fluids is determined by their ability to degrade an insoluble protease substrate, azocoll (Sigma). Supernatants are treated for 10 minutes at room temperature with 350 μM p-aminophenylmurcuric acetate to activate the latent enzyme. Three hundred of μl of supernatant is then mixed with 500 μl of a 20 mg/ml suspension of azocoll and incubated at 37° C. for 18-24 hours with gentle rocking. The mixtures are centrifuged and the amount of substrate hydrolyzed is determined by measuring the absorbance of the supernatant at 520 nm.
Drug effects are calculated as the % change in enzyme activity (absorbance)by supernatants from drug-treated chondrocytes relative to enzyme activity of supernatants from vehicle-treated chondrocytes as follows: [formula]
Where tested in this assay, the compounds of the invention gave the following results: […]

[1] = test compound 10 min before IL-1, 24 h, read-out: % Inhibition (I.S.D.)

Row | Structure (SMILES) | inhibition at 10 µM [1] [%] | inhibition at 0.1 µM (dose 0.1 μM, test compound 10 min before IL-1, 24 h, read-out: % Inhibition (I.S.D.)) [%] | inhibition at 1 µM (dose 1 μM, test compound 10 min before IL-1, 24 h, read-out: % Inhibition (I.S.D.)) [%] | IC50 (24 h, doses 10, 1 and 0.1 μM) [µM]
1 | CS(=O)(=O)c1ccc(NCCc2[nH]c3c(cnc4cc(Cl)ccc43)c2C=O)cc1 [Example 3, 7-Chloro-2-[2-[[4-(methylsulfonyl)phenyl]amino]ethyl]-1H-pyrrolo[3,2-c]quinoline-3-carboxaldehyde] | 28 | – | – | –
2 | N#Cc1ccc(NCCc2[nH]c3c(cnc4cc(Cl)ccc43)c2C=O)cc1 [Example 1, 4-[[2-(7-Chloro-3-formyl-1H-pyrrolo[3,2-c]-quinolin-2-yl)ethyl]amino]benzonitrile] | 21 | – | – | –
3 | CCOC(=O)c1ccc(NCCc2[nH]c3c(cnc4cc(Cl)ccc43)c2C=NNc2ccccc2)cc1 [Example 5, 4-[[2-[7-Chloro-3-[(phenylhydrazono)methyl]-1H-pyrrolo[3,2-c]quinolin-2-yl]ethyl]amino]benzoic acid ethyl ester] | 54 | – | – | –
4 | N#Cc1ccc(NCCc2[nH]c3c(cnc4cc(Cl)ccc43)c2C=NNc2ccccc2)cc1 [Example 4, 4-[[2-[7-Chloro-3-[(phenylhydrazono)methyl]-1H-pyrrolo[3,2-c]quinolin-2-yl]ethyl]amino]benzonitrile] | 52 | – | – | –
5 | CCOC(=O)c1ccc(NCCc2[nH]c3c(cnc4cc(Cl)ccc43)c2C=O)cc1 [Example 2, 4-[[2-(7-Chloro-3-formyl-1H-pyrrolo[3,2-c]quinolin-2-yl)ethyl]amino]benzoicacid ethyl ester] | 50 | – | – | –
6 | CS(=O)(=O)c1ccc(NCCc2[nH]c3c(cnc4cc(Cl)ccc43)c2C=NNc2ccccc2)cc1 [Example 6, 7-Chloro-2-[2-[[4-(methylsulfonyl)phenyl]amino]ethyl]-1H-pyrrolo[3,2-c]quinoline-3-carboxaldehyde phenylhydrazone] | 80 | 14 | 23 | 2.9
